The values below come from paper PMC11173677, “Identification and Evaluation of Olive Phenolics in the Context of Amine Oxidase Enzyme Inhibition and Depression: In Silico Modelling and In Vitro Validation” (Molecules, 2024).

The IC50 is the concentration at which inhibition is half-maximal.

Read-outs that look alike come from different tables or passages of the source.

Data set [1] has as its target T1, LSD1 (Homo sapiens, UniProt O60341).
T1 construct: Reaction Biology Corporation (performed the assay)
To be noted: in vitro assays; cited from earlier work.

For the next data set, the system named is BJ cells. The experiment in a line: Viability of BJ cells (CellTiter-Blue Cell Viability Assay). It is filed as cell-based, human. To be noted: for IC50: Homo sapiens, BJ. As for the experimental part:
The BJ cells were seeded at densities of 10,000 cells in black flat bottom 96-well plates (Nalge Nunc, Penfield, Rochester, NY, USA) and treated with a dose–response of OLC (0–500 μM) and OLP (0–500 μM) for 24 h, 48 h, 72 h, and 7 days at 37 °C, 5% (v/v) CO2. Cell viability was measured using the Cell-Titer Blue® Assay kit (Promega, Madison, WI, USA) according to the manufacturer’s instructions. Cell-Titer Blue reagent was added to each well and incubated for 4 h at 37 °C with 5% (v/v) CO2 before the fluorescence intensity was read using the CLARIOstar Microplate Reader (BMG Labtech, Ortenberg, Germany).
A Nikon Eclipse Ts2 light microscope (Nikon Ti TS2-S-SM, Tokyo, Japan) was used to image untreated and treated BJ cells (OLP or OLC: 0–100 μM) at 4× objective magnification at 20, 44, and 120 h (Figures S1 and S2).
In general terms: The colour change of resazurin is a common sign of viable cells or microbes.

The target of data set [2] is T1, LSD1. The experiment in a line: LSD1 fluorescence coupling enzyme assay (Reaction Biology Corporation). It is filed as biochemical. To be noted: Reaction Biology Corp., 30 min pre-incubation, 10 μM histone H3(1-21)K4me2 peptide substrate; read-out: IC50, LSD1 demethylase activity. As for the experimental part:
The inhibitory activity of HCl 489479, OLC, and OLP was measured using a fluorescence coupling enzyme assay (performed by Reaction Biology Corporation). […] All compounds were pre-incubated for 30 min with the enzyme before the addition of 10 μM histone H3(1-21)K4me2 peptide substrate to start the reaction. Fluorescence was measured using an EnVision Multimode Plate Reader at Ex/Em = 535/590.

A further data set deals with T2, purified MAO-A (Homo sapiens, UniProt P21397).
T2 construct: purchased Sigma-Aldrich MAK295
T2 sequence (P21397 1-527): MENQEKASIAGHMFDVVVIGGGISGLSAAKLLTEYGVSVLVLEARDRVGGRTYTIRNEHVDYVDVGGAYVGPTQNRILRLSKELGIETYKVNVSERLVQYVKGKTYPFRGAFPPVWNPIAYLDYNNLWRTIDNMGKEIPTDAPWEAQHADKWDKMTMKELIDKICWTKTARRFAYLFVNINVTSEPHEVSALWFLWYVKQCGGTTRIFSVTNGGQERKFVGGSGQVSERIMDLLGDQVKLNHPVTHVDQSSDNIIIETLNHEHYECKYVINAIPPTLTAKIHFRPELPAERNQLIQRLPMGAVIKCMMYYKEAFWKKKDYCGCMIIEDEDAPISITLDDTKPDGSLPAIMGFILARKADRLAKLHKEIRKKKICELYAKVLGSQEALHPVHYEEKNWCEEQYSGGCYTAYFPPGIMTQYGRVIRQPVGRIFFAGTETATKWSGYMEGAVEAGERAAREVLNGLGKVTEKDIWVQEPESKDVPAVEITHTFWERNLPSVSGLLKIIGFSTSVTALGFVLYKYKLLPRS
Nature of the data set: MAO-A direct screening assay (inhibitor screening kit). It is filed as biochemical. As to conditions: purified enzyme; read-out: IC50, inhibition of MAO-A. As for the experimental part: The assays were conducted for MAO-A and MAO-B according to the manufacturer’s instructions.

Data set [3] relates to T3, MAO-A.
T3 construct: endogenous in cells; host or cells: BJ human foreskin fibroblasts stimulated with DEX or HC
Nature of the data set: MAO-A activity assay in corticosteroid-stimulated BJ cells. It is filed as cell-based, human. As to conditions: then 50 μM compound 24 h. As for the experimental part: (§1) The BJ cells were subsequently incubated with 10 μM HC or 100 μM DEX to stimulate MAO expression. […] The untreated BJ cells received normal growth medium. The cells were collected, homogenised, and analysed through Western blotting where the expression of MAO-A/B was determined through immunodetection of protein subtypes.
(§2) Activity assays were commercially sourced from BioVision (Abcam, BioVision ab241031, Waltham, MA, USA) and were performed according to manufacturer’s instructions. The treatment groups were plated in duplicate on a black, flat 96-well microplate. The cells were homogenised in assay buffer using a microtube mixer at 4 °C and centrifuged at 10,000× g for 10 min. A Bradford assay was performed to determine the total protein concentration within each cell pellet (200 μg/well for BJ cells, 40 μg/well for hESC-derived neurons). Approximately 40 μL of supernatant was loaded into wells along with 10 μL of either […], or assay buffer for total MAO activity. A H2O2 standard was pipetted as supplied and 50 μL of reaction mix was pipetted into all wells. Using a CLARIOstar Plus Microplate Reader, (BMG Labtech, Ortenberg, Germany), fluorescence was measured kinetically at 25 °C for 60 min with Ex/Em = 535/587 nm.

In data set [4] the test system is T4, MAO-B.
T4 construct: endogenous in cells; host or cells: BJ human foreskin fibroblasts stimulated with DEX or HC
The experiment in a line: MAO-B activity assay in corticosteroid-stimulated BJ cells. It is filed as cell-based, human. As to conditions: then 50 μM compound 24 h. As for the experimental part: as §1, §2

Data set [5] deals with total MAO. The experiment in a line: Total MAO activity assay in corticosteroid-stimulated BJ cells. It is filed as cell-based, human. As to conditions: then 50 μM compound 24 h. As for the experimental part:
as §1, §2

For data set [6], the system named is T3, MAO-A. Nature of the data set: MAO-A activity assay in hESC-derived neurons stimulated with ATRA. It is filed as cell-based, human. As to conditions: 1 μM ATRA 24 h, then TCP 5 μM, OLC 50 μM or OLP 50 μM for 24 h. As for the experimental part:
(§3) An in vitro model of MDD was designed for stem cell-derived neuronal cells through incubation of 1 μM all-trans retinoic acid (Sigma-Aldrich PHR1187, St. Louis, MO, USA). All cell treatments were conducted in duplicate and replicated using independently differentiating neuronal plates.
as §2

Data set [7] has as its system T4, MAO-B. Nature of the data set: MAO-B activity assay in hESC-derived neurons stimulated with ATRA. It is filed as cell-based, human. To be noted: 1 μM ATRA 24 h, then TCP 5 μM, OLC 50 μM or OLP 50 μM for 24 h. As for the experimental part: as §3, §2
The subject of data set [8] is total MAO. The experiment in a line: Total MAO activity assay in hESC-derived neurons stimulated with ATRA. To be noted: 1 μM ATRA 24 h, then TCP 5 μM, OLC 50 μM or OLP 50 μM for 24 h. It is filed as cell-based, human. As for the experimental part:
as §3, §2

The subject of a further data set is MAO-A/B expression. The experiment in a line: MAO-A/B protein expression in HC- or DEX-stimulated BJ cells (Western blotting). It is filed as cell-based, human. To be noted: 10 μM HC 5 days or 100 μM DEX 7 days, then 50 μM compound; Western blot. As for the experimental part: as §1
(In general: Immunoblotting shows a protein as a band on a membrane.)

A further data set relates to human skin fibroblasts. Also on record: method as in PMID 37432217. As to conditions: in comparison to untreated controls, at certain doses; cited from earlier work.

For `CC=C(C=O)C(CC=O)CC(=O)OCCc1ccc(O)c(O)c1` (stereo in doubt) [oleacein], the IC50 at LSD1 [1] is around 2.5 µM.

For `C/C=C(/C=O)[C@@H](CC=O)CC(=O)OCCc1ccc(O)cc1` [OLC, oleocanthal], the “relative viability of BJ cells at the highest concentration” value in the data set with BJ cells (500 μM) is “reduction”. For the same compound, the “proliferation potential of BJ cells” value in the data set with BJ cells (25, 50, 75 and 100 μM, similar to untreated cells) is on record as “maintained their proliferation potential”. The IC50 with BJ cells (24 h) was 123 µM; in the data set on BJ cells (48 h), 111 µM; at LSD1 [2], 12 µM; on purified MAO-A it was 1.9 µM. For the same compound, the “toxicity to BJ cells at the concentrations used in further experiments” value with BJ cells (concentrations used in further experiments (50 μM)) is listed as “non-toxic”. Also, the “viability of BJ cells at lower concentrations” value in the data set on BJ cells (up to 200 μM) is listed as “largely maintained”. The “MAO-A activity in BJ cells” value in the data set with MAO-A [3] (10 μM HC 5 days) and with MAO-A [3] (100 μM DEX 7 days) was “downregulate” each time. The “MAO-B activity in BJ cells” value in the data set with MAO-B [4] (10 μM HC 5 days) and in the data set on MAO-B [4] (100 μM DEX 7 days) was “downregulate” throughout. Moreover, the “total MAO activity in BJ cells” value in the data set on total MAO [5] (10 μM HC 5 days) and with total MAO [5] (100 μM DEX 7 days) was “downregulate” throughout. Moreover, the “MAO-A activity in hESC-derived neurons” value with MAO-A [6] is recorded as “significantly reduced”. Besides, the “MAO-B activity in hESC-derived neurons” value with MAO-B [7] is “significantly reduced”. Further, in the data set with total MAO [8], the “total MAO activity in hESC-derived neurons” value was “significantly reduced”. For the same compound, the “MAO enzyme expression within BJ cells” value with MAO-A/B expression is on record as “Potent inhibition”. In addition, in the data set with human skin fibroblasts, the “growth capacity of human skin fibroblasts” value was “significantly increased”.
